# Experimental data reported in patent US11414424B2, “Cardiac sarcomere inhibitors” (Cytokinetics, Inc., priority 2018, dated 2022).
# Test system: bovine cardiac myofibrils
# Assay: Myofibril assay: PK/LDH-coupled steady-state ATPase activity of skinned bovine cardiac myofibrils
# Assay type: biochemical
# Details: Ca2+ activating to 75% of maximal rate
# How it was run: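 Steady-state ATPase of detergent-skinned bovine left-ventricular myofibrils (1 mg/mL), PK/LDH-coupled NADH read at 340 nm, in PIPES/MgCl2 buffer pH 6.8 with 50 μM ATP, 0.6 mM EGTA and CaCl2 set for 50% or 75% activation. Inhibition of activity measured.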
row,CDMF75 IC15,Structure (SMILES)
1,7.3 µM,"Cc1cc(Cl)cnc1N1CC(=O)N(Cc2ccc(Cl)cc2)C(C2(C)COC2)C1=O (stereo not drawn) [Compound 663, 1-(5-chloro-3-methylpyridin-2-yl)-4-(4-chlorobenzyl)-3-(3-methyloxetan-3-yl)-piperazine-2,5-dione]"
2,2.3 µM,"Cc1ccc(CN2C(=O)CN(c3ncc(Cl)cc3F)C(=O)[C@@H]2C23CC(C(N)=O)(C2)C3)cc1 [Compound 823, (S)-3-(4-(5-chloro-3-fluoropyridin-2-yl)-1-(4-methylbenzyl)-3,6-dioxopiperazin-2-yl)bicyclo[1.1.1]pentane-1-carboxamide]"
3,3.9 µM,"CC(=O)N1CC2(C1)C(=O)N(c1ccc(-c3ncon3)cc1F)CC(=O)N2Cc1ccc(C(F)(F)F)cc1 [Compound 701, 2-acetyl-8-(2-fluoro-4-(1,2,4-oxadiazol-3-yl)phenyl)-5-(4-(trifluoromethyl)benzyl)-2,5,8-triazaspiro[3.5]nonane-6,9-dione]"
4,2.9 µM,"CC(=O)N1CC2(C1)C(=O)N(c1ncc(Cl)cc1F)CC(=O)N2Cc1ccc(Cl)cc1 [Compound 182, 2-acetyl-8-(5-chloro-3-fluoropyridin-2-yl)-5-(4-chlorobenzyl)-2,5,8-triazaspiro[3.5]nonane-6,9-dione]"
5,1.2 µM,"COC(=O)N1CC2(C1)C(=O)N(c1ncc(Cl)cc1F)CC(=O)N2[C@@H](C)c1ccc(Cl)cc1 [Compound 567, methyl (S)-8-(5-chloro-3-fluoropyridin-2-yl)-5-(1-(4-chlorophenyl)ethyl)-6,9-dioxo-2,5,8-triazaspiro-[3.5]nonane-2-carboxylate]"
6,10.2 µM,"CC(C)N1CC(=O)N(Cc2ccc(C(F)(F)F)cc2)C2(CCN(C(=O)Nc3ccc(F)cc3)C2)C1=O (stereo not drawn) [Compound 115, N-(4-fluorophenyl)-9-isopropyl-7,10-dioxo-6-(4-(trifluoromethyl)benzyl)-2,6,9-triazaspiro[4.5]decane-2-carboxamide]"
7,0.7 µM,"Cc1cc(Cl)cnc1N1CC(=O)N(Cc2ccc(Cl)cc2)C2(CN(c3ccc(C#N)cn3)C2)C1=O [Compound 886, 6-(8-(5-chloro-3-methyl-pyridin-2-yl)-5-(4-chloro-benzyl)-6,9-dioxo-2,5,8-triazaspiro[3.5]nonan-2-yl)nicotinonitrile]"
8,9.2 µM,"Cc1cc(Cl)cnc1N1CC(=O)N(Cc2ccc(F)c(F)c2)C(C2COC2)C1=O (stereo not drawn) [Compound 720, 1-(5-chloro-3-methyl-pyridin-2-yl)-4-(3,4-difluorobenzyl)-3-(oxetan-3-yl)piperazine-2,5-dione]"
9,4.2 µM,"CC(C)N1CC(=O)N(Cc2ccc(Cl)cc2)C2(CCN(c3cnccn3)C2)C1=O (stereo not drawn) [Compound 74, 6-(4-chlorobenzyl)-9-isopropyl-2-(pyrazin-2-yl)-2,6,9-triazaspiro[4.5]-decane-7,10-dione]"
10,5.3 µM,"Cc1cc(Cl)cnc1N1CC(=O)N(Cc2ccc(Cl)cc2)C(C2COC2)C1=O (stereo not drawn) [Compound 654, 1-(5-chloro-3-methylpyridin-2-yl)-4-(4-chlorobenzyl)-3-(oxetan-3-yl)piperazine-2,5-dione]"
11,0.2 µM,"CNC(=O)c1ccc(N2CC3(C2)C(=O)N(c2ccc(C#N)cc2F)CC(=O)N3Cc2ccc(C(F)(F)F)cc2)cc1NC [Compound 542, 4-(8-(4-cyano-2-fluoro-phenyl)-6,9-dioxo-5-(4-(trifluoromethyl)benzyl)-2,5,8-triazaspiro[3.5]nonan-2-yl)-N-methyl-2-(methylamino)benzamide]"
12,1.7 µM,"CC(C)N1CC(=O)N(Cc2ccc(Cl)cc2)C2(CN(c3ccc(F)cc3)C2)C1=O [Compound 3, 5-(4-chlorobenzyl)-2-(4-fluorophenyl)-8-isopropyl-2,5,8-triazaspiro[3.5]-nonane-6,9-dione]"
13,2.7 µM,"Cc1ccnc(N2CC3(C2)C(=O)N(C(C)C)CC(=O)N3Cc2ccc(Cl)cc2)c1 [Compound 15, 5-(4-chlorobenzyl)-8-isopropyl-2-(4-methyl-pyridin-2-yl)-2,5,8-triazaspiro[3.5]nonane-6,9-dione]"
14,2.9 µM,"CNC(=O)N1CC2(C1)C(=O)N(c1ccc(OC)c(F)c1)CC(=O)N2Cc1ccc(C(F)(F)F)cc1 [Compound 170, 8-(3-fluoro-4-methoxy-phenyl)-N-methyl-6,9-dioxo-5-(4-(trifluoromethyl)-benzyl)-2,5,8-triazaspiro-[3.5]nonane-2-carboxamide]"

# Continued, compound first:
row,Structure (SMILES),CDMF75 IC15
1,"CC(C)[C@H]1C(=O)N(c2ccc(C#N)cc2F)CC(=O)N1Cc1ccc(C(F)(F)F)cc1 [Compound 283, (S)-3-fluoro-4-(3-isopropyl-2,5-dioxo-4-(4-(trifluoromethyl)benzyl)-piperazin-1-yl)benzonitrile]",0.6 µM
2,"CC(C)N1CC(=O)N(Cc2ccc(Cl)cc2)C2(CN(c3ccc(C#N)cn3)C2)C1=O [Compound 63, 6-(5-(4-chlorobenzyl)-8-isopropyl-6,9-dioxo-2,5,8-triazaspiro[3.5]nonan-2-yl)nicotinonitrile]",5.1 µM
3,"Cc1cc(Cl)cnc1N1CC(=O)N(Cc2ccc(Cl)cc2)[C@@H](C(C)C)C1=O [Compound 660, (S)-1-(5-chloro-3-methylpyridin-2-yl)-4-(4-chlorobenzyl)-3-isopropyl-piperazine-2,5-dione]",0.84 µM
4,"CNC(=O)N1CC2(C1)C(=O)N(c1ccc3oc(=O)ccc3c1)CC(=O)N2Cc1ccc(C(F)(F)F)cc1 [Compound 177, N-methyl-6,9-dioxo-8-(2-oxo-2H-chromen-6-yl)-5-(4-(trifluoromethyl)benzyl)-2,5,8-triazaspiro[3.5]-nonane-2-carboxamide]",1.8 µM
5,"COC(=O)N1CC2(C1)C(=O)N(c1ccc(C#N)cc1)CC(=O)N2Cc1ccc(C(F)(F)F)cc1 [Compound 188, methyl 8-(4-cyanophenyl)-6,9-dioxo-5-(4-(trifluoromethyl)benzyl)-2,5,8-triazaspiro[3.5]-nonane-2-carboxylate]",2.6 µM
6,"CNC(=O)c1ccc(N2CC3(C2)C(=O)N(c2ccc(C#N)cc2F)CC(=O)N3Cc2ccc(C(F)(F)F)cc2)cc1 [Compound 540, 4-(8-(4-cyano-2-fluorophenyl)-6,9-dioxo-5-(4-(trifluoromethyl)benzyl)-2,5,8-triazaspiro[3.5]nonan-2-yl)-N-methylbenzamide]",0.2 µM
7,"N#Cc1ccc(N2CC3(C2)C(=O)N(C2CCCCC2)CC(=O)N3Cc2ccc(C(F)(F)F)cc2)nc1 [Compound 62, 6-(8-cydohexyl-6,9-dioxo-5-(4-(trifluoromethyl)-benzyl)-2,5,8-triazaspiro[3.5]nonan-2-yl)nicotinonitrile]",1.8 µM
8,"CC(C)N1CC(=O)N(Cc2ccc(C(F)(F)F)cc2)C2(CCN(c3cccnn3)C2)C1=O (stereo not drawn) [Compound 73, 9-isopropyl-2-(pyridazin-3-yl)-6-(4-(trifluoromethyl)benzyl)-2,6,9-triazaspiro[4.5]-decane-7,10-dione]",5.7 µM
9,"CC(C)N1CC(=O)N(Cc2ccc(Cl)cc2)C2(CN(c3ccnc(C(F)F)c3)C2)C1=O [Compound 29, 5-(4-chlorobenzyl)-2-(2-(difluoromethyl)pyridin-4-yl)-8-isopropyl-2,5,8-triazaspiro[3.5]nonane-6,9-dione]",5.6 µM

# Same assay, conditions: Ca2+ activating to 75% of maximal rate, listed as 867A
row,Structure (SMILES),CDMF75 IC15
1,"O=C1CN(c2ccc(Cl)cc2F)C(=O)C2(CC(O)C2)N1Cc1ccc(F)cc1 (single isomer, unassigned) [Diastereomer 867A, 8-(4-chloro-2-fluorophenyl)-5-(4-fluorobenzyl)-2-hydroxy-5,8-diazaspiro[3.5]nonane-6,9-dione]",2.1 µM
